These molecules were tested on HIV-1 NL4-3 viral clone expressing Renilla luciferase (assay: microbe, parasite or virus in culture). Conditions: Human immunodeficiency virus 1, NL43, MT2, 96 h.
Assay type: cell-based
Description: Protocol for MT-2 Spread Assay
The present assay was used to screen candidate antiviral compounds by quantification of virus spread and production over several rounds of infection in vitro. MT-2, a HIV-1 permissive human T-cell line, was seeded in microtiter plates and was simultaneously treated with serially diluted compound and inoculated with a HIV-1 NL4-3 viral clone engineered to express Renilla luciferase in place of Net Following treatment, the culture was incubated for 96 hours. After the incubation, media was collected and used to estimate relative infectivity on the indicator cell line, TZM-bl. Additionally, viral spread was quantified by measuring luciferase activity via a commercially available luciferase substrate. In parallel, MT-2 cells were seeded and inoculated with mock virus in the presence of serially diluted compound. Compound toxicity was quantified 96 hours after treatment with AlamarBlue.
MT-2 (NIH Aids reagent program 237) cells were grown and maintained in an incubator at 37° C. with 5% CO2 using a basal medium of RPMI-1640 supplemented with 10% FBS. Cells were seeded in 100 μl at 2×10^4 cells/well in white walled 96-well microtiter plates. Candidate compounds were 3-fold serially diluted in the appropriate solvent. Solvent without compound was used as a no drug reference. Cells were inoculated at a multiplicity of 0.027 with an HIV-1 NL4-3 virus stock engineered to express Renilla luciferase in place of Net Diluted virus stock was first added to serially diluted compound. Compound and virus were delivered to cells in an equal volume (100 μl) and treated cultures were returned to the incubator for 96 hours. In parallel, plates for cytotoxicity estimates were prepared in the same way except cells were plated in clear walled 96-well microtiter plates and were mock infected.
At 96 hours post infection, 100 μl virus containing culture supernatant was collected from the treated and infected cultures and serially diluted in DMEM supplemented with 10% FBS, 1% sodium pyruvate, and 20 μg/ml DEAE dextran. One day prior, TZM-bl (ATCC PTA-5659) were cultured in basal medium of DMEM supplemented with 10% FBS and 1% sodium pyruvate and seeded at 7.5×10^3 cells/well in black walled 96-well microtiter plates. Diluted virus containing culture supernatant was transferred to TZM-bl cultures and incubated for 48 hours at 37° C. with 5% CO2. Infected TZM-bl cultures were fixed for 5 minutes with a 1% formaldehyde/0.2% gluteraldehyde/PBS solution then washed three times with PBS. Fixed cultures were incubated at 37° C. for 25 minutes with a 200 μg/ml MUG (4-Methylumbelliferyl β-D-[…])/DMEM solution. The reaction was stopped with an equal volume of 1M sodium carbonate and read at 360, 449 nm on fluorescence plate reader (Biotek).
At 96 hours post infection, 100 μl of culture supernatant was removed from the treated and infected cultures and EnduRen live cell substrate (Promega) was added at a final concentration 1.3 μg/ml. Cells were incubated for 1.5 hours at 37° C. with 5% CO2 then read on a luminescence plate reader (Biotek).
For all assays, data was imported into Accelrys Assay Explorer 3.3. In Assay Explorer, % inhibition (antiviral or cytotoxicity) was calculated using the solvent control as a reference by the following equation: 1−(SignalCompound/SignalReference). The % Inhibition and compound concentration data was fitted using the following 4-parameter logistic model (Assay Explorer model 42):
[formula] where X is compound concentration, Y is % inhibition, D is the maximum % Inhibition (constrained to 100%), C is IC50 value or inflection point, B is the hill slope, and A is the minimum % inhibition (constrained to 0%). The IC50 value is reported as the EC50 or CC50 depending on the assay endpoint. EC50 represents the effective concentration at which virus replication is inhibited by 50 percent. CC50 represents the concentration that results in the death of 50 percent of the host cells. […]

COc1cc2c(cc1OCc1ccccc1)CCNC2/C=C/c1cccc(C(F)(F)F)c1 (centres unmarked) [DB, (E)-6-(benzyloxy)-7-methoxy-1-(3-(trifluoromethyl)styryl)-1,2,3,4-tetrahydroisoquinolin] was tested. Which EC50 did it give?
Its EC50 is 2670 nM.

How did the EC50 turn out when COc1cc2occc2cc1/C=C/C1NCCc2cc(OCc3ccccc3)c(OC)cc21 (centres unmarked) [EB, 6-Benzyloxy-7-methoxy-1-[(E)-2-(6-methoxybenzofuran-5-yl)vinyl]-1,2,3,4-tetrahydroisoquinoline] was run?
The EC50 was 300 nM.

COc1cc2c(cc1OCc1ccccc1)CCNC2/C=C/c1cccc(C(=O)O)c1 (centres unmarked) [ER, 3-[(E)-2-(6-benzyloxy-7-methoxy-1,2,3,4-tetrahydroisoquinolin-1-yl)vinyl]benzoic acid] was tested. Which EC50 did it give?
Its EC50 is 10000 nM.

How did the EC50 turn out when COc1cc(C)c(/C=C/C2NCCc3cc(OCc4ccccc4)c(OC)cc32)cc1OC (centres unmarked) [Example AH, 6-benzyloxy-1-[(E)-2-(4,5-dimethoxy-2-methyl-phenyl)vinyl]-7-methoxy-1,2,3,4-tetrahydroisoquinoline] was run?
Its EC50 is 13.3 nM.

For COc1ccc(/C=C/C2c3cc(OC)c(OCc4ccccc4)cc3CCN2C)cc1OCc1ccccc1 (centres unmarked) [Example V, 6-benzyloxy-1-[(E)-2-(3-benzyloxy-4-methoxy-phenyl)vinyl]-7-methoxy-2-methyl-3,4-dihydro-1H-isoquinoline], which EC50 is on record?
The EC50 was 780 nM.

For COc1cc2c(cc1OCc1ccccc1)CCNC2/C=C/c1cccc(-c2ccncc2)c1 (centres unmarked) [DQ, 6-(Benzyloxy)-7-methoxy-1-[(E)-2-[3-(pyridin-4-yl)phenyl]ethenyl]-1,2,3,4-tetrahydroisoquinoline], which EC50 is on record?
The EC50 was 126 nM.

COc1cc2c(cc1OCc1ccccc1)CCNC2/C=C/c1sccc1C (centres unmarked) [BS, 6-Benzyloxy-7-methoxy-1-[(E)-2-(3-methyl-2-thienyl)vinyl]-1,2,3,4-tetrahydroisoquinoline] was tested. Which EC50 did it give?
The EC50 was 2870 nM.

COc1cc2c(cc1OCc1ccccc1)CCNC2/C=C/c1nccs1 (centres unmarked) [DV, 6-(Benzyloxy)-7-methoxy-1-[(E)-2-(1,3-thiazol-2-yl)ethenyl]-1,2,3,4-tetrahydroisoquinoline] was tested. Which EC50 did it give?
The EC50 was 29500 nM.

With CCCCN1CCc2cc(OCc3ccccc3)c(OC)cc2C1/C=C/c1ccc(OC)c(OCc2ccccc2)c1 (centres unmarked) [Example G, 6-Benzyloxy-1-[(E)-2-(3-benzyloxy-4-methoxy-phenyl)vinyl]-2-butyl-7-methoxy-3,4-dihydro-1H-isoquinoline] as the molecule, how does the EC50 read?
Its EC50 is 5000 nM.

How did the EC50 turn out when COc1ccc(/C=C/C2NCCc3cc(OCc4ccccc4)c(OC)cc32)cc1 (centres unmarked) [BJ, 6-Benzyloxy-7-methoxy-1-[(E)-2-(4-methoxyphenyl)vinyl]-1,2,3,4-tetrahydroisoquinoline] was run?
The EC50 was 477 nM.

With COc1cc2c(cc1OCc1ccccc1)CCNC2/C=C/c1ccccc1C(F)(F)F (centres unmarked) [DA, (E)-6-(benzyloxy)-7-methoxy-1-(2-(trifluoromethyl)styryl)-1,2,3,4-tetrahydroisoquinoline] as the molecule, how does the EC50 read?
The EC50 was 2340 nM.

Which EC50 does the source give for COc1cc(C)c(/C=C/C2c3cc(OC)c(OCc4ccccc4)cc3CCN2C(=O)OC(C)(C)C)cc1OCc1ccccc1 (centres unmarked) [Example Y, tert-butyl 6-benzyloxy-1-[(E)-2-(5-benzyloxy-4-methoxy-2-methyl-phenyl)vinyl]-7-methoxy-3,4-dihydro-1H-isoquinoline-2-carboxylate] here?
The EC50 was 390 nM.

For COc1cc2c(cc1OCc1ccccc1)CCNC2/C=C/c1ccc(C(=O)O)cc1 (centres unmarked) [EQ, 4-[(E)-2-(6-benzyloxy-7-methoxy-1,2,3,4-tetrahydroisoquinolin-1-yl)vinyl]benzoic acid], which EC50 is on record?
Its EC50 is 7040 nM.

COc1cc2c(cc1OCc1ccccc1)CCNC2/C=C/c1ccc2occc2c1 (centres unmarked) [BN, 1-[(E)-2-(benzofuran-5-yl)vinyl]-6-benzyloxy-7-methoxy-1,2,3,4-tetrahydroisoquinoline] was tested. Which EC50 did it give?
The EC50 was 840 nM.

Which EC50 does the source give for COc1cc2c(cc1OCc1ccccc1)CCNC2/C=C/c1ccc(-c2cncnc2)cc1 (centres unmarked) [DS, 6-(Benzyloxy)-7-methoxy-1-[(E)-2-[4-(pyrimidin-5-yl)phenyl]ethenyl]-1,2,3,4-tetrahydroisoquinoline] here?
The EC50 was 116 nM.

COc1cc2c(cc1OCc1ccccc1)CCNC2/C=C/c1ccnn1C (centres unmarked) [Example AK, 6-benzyloxy-7-methoxy-1-[(E)-2-(2-methylpyrazol-3-yl)vinyl]-1,2,3,4-tetrahydroisoquinoline] was tested. Which EC50 did it give?
The EC50 was 8870 nM.

COc1cc2c(cc1OCc1ccccc1)CCNC2/C=C/c1ccccc1NC(=O)OC(C)(C)C (centres unmarked) [CW, tert-Butyl N-[2-[(E)-2-(6-benzyloxy-7-methoxy-1,2,3,4-tetrahydroisoquinolin-1-yl)vinyl]phenyl]carbamate] was tested. Which EC50 did it give?
The EC50 was 5400 nM.

With COc1ccc(/C=C/C2NCCc3cc(OCc4ccccc4)c(OC)cc32)cc1F (centres unmarked) [BF] as the molecule, how does the EC50 read?
The EC50 was 1020 nM.

For COc1cc2c(cc1OCc1ccccc1)CCNC2/C=C/c1ccccc1N1CCCCC1 (centres unmarked) [DX, 6-(Benzyloxy)-7-methoxy-1-[(E)-2-[2-(piperidin-1-yl)phenyl]ethenyl]-1,2,3,4-tetrahydroisoquinoline], which EC50 is on record?
Its EC50 is 4200 nM.

With COc1cc(C)c(/C=C/C2NCCc3cc(OCc4ccccc4)c(OC)cc32)cc1OCCCC(=O)O (centres unmarked) [BO, 4-[5-[(E)-2-(B-benzyloxy-7-methoxy-1,2,3,4-tetrahydroisoquinolin-1-yl)vinyl]-2-methoxy-4-methyl-phenoxy]butanoic acid] as the molecule, how does the EC50 read?
Its EC50 is 234 nM.

Which EC50 does the source give for COc1cc2c(cc1OCc1ccccc1)CCNC2/C=C/c1ccccc1N (centres unmarked) [CX, 2-[(E)-2-(6-benzyloxy-7-methoxy-1,2,3,4-tetrahydroisoquinolin-1-yl)vinyl]aniline] here?
The EC50 was 1400 nM.

How did the EC50 turn out when COc1cc2c(cc1OCc1ccccc1)CCNC2/C=C/c1ccc(OC)c(C)c1C (centres unmarked) [EL, 6-Benzyloxy-7-methoxy-1-[(E)-2-(4-methoxy-2,3-dimethyl-phenyl)vinyl]-1,2,3,4-tetrahydroisoquinoline] was run?
Its EC50 is 150 nM.

For COc1ccc(CCC2NCCc3cc(OC)c(OC)cc32)cc1OC (centres unmarked) [Example A, 1-[2-(3,4-Dimethoxyphenyl)ethyl]-6,7-dimethoxy-1,2,3,4-tetrahydroisoquinoline], which EC50 is on record?
The EC50 was 10000 nM.

COc1cccc(-c2ncc(/C=C/C3NCCc4cc(OCc5ccccc5)c(OC)cc43)cn2)c1 (centres unmarked) [DN] was tested. Which EC50 did it give?
Its EC50 is 2400 nM.

How did the EC50 turn out when COc1cc2c(cc1OC)C(/C=C/c1cc(OCc3ccccc3)c(OC)cc1C)NCC2 (centres unmarked) [Example C, 1-[(E)-2-(5-Benzyloxy-4-methoxy-2-methyl-phenyl)vinyl]-6,7-dimethoxy-1,2,3,4-tetrahydroisoquinoline] was run?
The EC50 was 9760 nM.

With COc1cc2c(cc1OCc1ccccc1)CCNC2/C=C/c1ccc(-n2ccnc2C)cc1 (centres unmarked) [DM, (E)-6-(benzyloxy)-7-methoxy-1-(4-(2-methyl-1H-imidazol-1-yl)styryl)-1,2,3,4-tetrahydroisoquinoline] as the molecule, how does the EC50 read?
The EC50 was 1520 nM.

How did the EC50 turn out when COc1cc2c(cc1OCc1ccccc1)CCNC2/C=C/c1ccc(OC)c(C(F)(F)F)c1 (centres unmarked) [CY, (E)-6-(Benzyloxy)-7-methoxy-1-(4-methoxy-3-(trifluoromethyl)styryl)-1,2,3,4-tetrahydroisoquinoline] was run?
The EC50 was 697 nM.

For COC(=O)N1CCc2cc(OCc3ccccc3)c(OC)cc2C1/C=C/c1ccc(OC)c(OCc2ccccc2)c1 (centres unmarked) [Example L, Methyl 6-benzyloxy-1-[(E)-2-(3-benzyloxy-4-methoxy-phenyl)vinyl]-7-methoxy-3,4-dihydro-1H-isoquinoline-2-carboxylate], which EC50 is on record?
The EC50 was 2810 nM.

Which EC50 does the source give for COc1cc2c(cc1OCc1ccccc1)CCNC2/C=C/c1ccc2c(c1)OCC2 (centres unmarked) [EG, 6-Benzyloxy-1-[(E)-2-(2,3-dihydrobenzofuran-6-yl)vinyl]-7-methoxy-1,2,3,4-tetrahydroisoquinoline] here?
The EC50 was 900 nM.
